In patent US20100144786A1, “QUINOLINE DERIVATIVES AS CRTH2 RECEPTOR LIGANDS” (priority 2007, published 2010):
pIC50: −log10 of the molar value.

Target: T1, CRTH2 receptor (Homo sapiens, UniProt Q9Y5Y4)
T1 construct: expressed in transfected cells; host or cells: Human embryonic kidney (HEK) cells, membranes
T1 sequence (Q9Y5Y4 1-395): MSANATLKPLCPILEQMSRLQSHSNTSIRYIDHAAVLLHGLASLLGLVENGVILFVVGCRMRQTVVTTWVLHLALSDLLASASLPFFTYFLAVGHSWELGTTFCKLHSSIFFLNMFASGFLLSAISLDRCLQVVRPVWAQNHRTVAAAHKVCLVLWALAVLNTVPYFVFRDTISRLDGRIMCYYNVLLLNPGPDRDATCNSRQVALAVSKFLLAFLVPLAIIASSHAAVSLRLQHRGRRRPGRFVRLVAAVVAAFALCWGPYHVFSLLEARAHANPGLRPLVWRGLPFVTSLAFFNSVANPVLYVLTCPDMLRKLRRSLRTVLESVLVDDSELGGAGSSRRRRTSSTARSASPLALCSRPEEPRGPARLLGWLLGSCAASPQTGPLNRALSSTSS
Assay: CRTH2 radioligand binding assay ([3H]-PGD2 displacement, SPA)
Details: HEK cell membranes expressing the CRTH2 receptor, 1 nM [3H]-PGD2
Protocol: Compounds of the invention were tested using the following biological test methods to determine their ability to displace PGD2 from the CRTH2 receptor and for their ability to antagonise the functional effects of PGD2 at the CRTH2 receptor.
The receptor binding assay is performed in a final volume of 200 μl binding buffer [10 mM BES (pH 7.4), 1 mM EDTA, 10 mM manganese chloride, 0.01% BSA] and 1 nM [^3H]-PGD2 (Amersham Biosciences UK Ltd). Ligands are added in assay buffer containing a constant amount of DMSO (1% by volume). Total binding is determined using 1% by volume of DMSO in assay buffer and non-specific binding is determined using 10 μM of unlabeled PGD2 (Sigma). Human embryonic kidney (HEK) cell membranes (3.5 μg) expressing the CRTH2 receptor are incubated with 1.5 mg wheatgerm agglutinin SPA beads and 1 nM [^3H]-PGD2 (Amersham Biosciences UK Ltd) and the mixture incubated for 3 hours at room temperature. Bound [^3H]-PGD2 is detected using a Microbeta TRILUX liquid scintillation counter (Perkin Elmer). Compound IC50 value is determined using a 6-point dose response curve in duplicate with a semi-log compound dilution series. IC50 calculations are performed using Excel and XLfit (Microsoft), and this value is used to determine a Ki value for the test compound using the Cheng-Prusoff equation.

Work on CCc1nc2c(F)ccc(OCC(=O)O)c2c(OC(F)F)c1Cc1ccc(C#N)cc1 [Example 1, [3-(4-cyanobenzyl)-4-difluoromethoxy-2-ethyl-8-fluoroquinolin-5-yloxy]acetic acid] yielded a pIC50 of 8.21.

Work on CCc1nc2c(F)ccc(OCC(=O)O)c2c(OC(F)F)c1Cc1ccc(Br)cc1 [Example 2, [3-(4-bromobenzyl)-4-difluoromethoxy-2-ethyl-8-fluoroquinolin-5-yloxy]acetic acid] yielded a pIC50 of 8.12.
